Results from patent EP0888340B1, “4-(BENZO-1,3-DIOXOLYL)-PYRROLIDINE-3-CARBOXYLIC ACID DERIVATIVES AS ENDOTHELIN ANTAGONISTS” (Abbott Laboratories, priority 1996, dated 1997).

Target: T1, ETB Receptor (Sus scrofa, UniProt P35463)
T1 construct: Porcine cerebellum was homogenized in 25 volumes (w/v) of 10 mM Hepes (pH 7.4); from tissue; host or cells: porcine cerebellum membranes
T1 sequence (P35463 27-443): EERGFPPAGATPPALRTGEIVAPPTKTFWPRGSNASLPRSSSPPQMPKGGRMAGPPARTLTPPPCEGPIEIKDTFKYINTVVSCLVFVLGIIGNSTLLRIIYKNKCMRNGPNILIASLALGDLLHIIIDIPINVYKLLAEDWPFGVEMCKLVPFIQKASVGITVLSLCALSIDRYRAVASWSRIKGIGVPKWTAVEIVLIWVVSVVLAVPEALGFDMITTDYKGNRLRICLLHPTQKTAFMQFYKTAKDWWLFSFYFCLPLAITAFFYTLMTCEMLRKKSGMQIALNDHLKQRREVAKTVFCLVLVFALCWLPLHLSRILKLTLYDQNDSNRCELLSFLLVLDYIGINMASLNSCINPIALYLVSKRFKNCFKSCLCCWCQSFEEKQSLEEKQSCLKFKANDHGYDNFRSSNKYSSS
Test: ETB receptor binding assay: [125I]ET-3 binding to membranes
Conditions: test compound 1 µM; displacement of 0.1 nM [125I]ET-3; Porcine cerebellum membranes; 4 hours at 25 °C
Protocol: Preparation of membranes from Porcine cerebellum:
Porcine cerebellum was homogenized in 25 volumes (w/v) of 10 mM Hepes (pH 7.4) containing 0.25 M sucrose and protease inhibitors (3 mM EDTA, 0.1 mM PMSF, and 5 µg/ml Pepstatin A) by 3-10 sec polytron at 13,500 rpm with 10 sec intervals. The mixture was centrifuged at 1000xg for 10 min. The supernatant was collected and centrifuged at 30,000xg for 30 min. The precipitate was resuspended in Buffer A (20 mM Tris, 100 mM NaCl, 10 mM MgCl2, pH 7.4) containing the aforementioned protease inhibitors and centrifuged again. The final pellet was resuspended in Buffer A containing protease inhibitors and stored at -80°C until used. Protein content was determined by the Bio-Rad dye-binding protein assay.
[^125I]ET-3 binding to membranes:
Binding assays were performed in 96-well microtiter plates pretreated with 0.1% BSA. Membranes prepared from cells were diluted ∼100 fold in Buffer B (20 mM Tris, 100 mM NaCl, 10 mM MgCl2, pH 7.4, with 0.2% BSA, 0.1 mM PMSF, 5 µg/mL Pepstatin A, 0.025% bacitracin, and 3 mM EDTA) to a final concentration of 0.2 mg/mL of protein. In competition studies, membranes (0.02 mg) were incubated with 0.1 nM of [^125I]ET-3 in Buffer B (final volume: 0.2 mL) in the presence of increasing concentrations of unlabeled ET-3 or a test compound for 4 hours at 25 °C. After incubation, unbound ligands were separated from bound ligands by a vacuum filtration method using glass-fiber filter strips in PHD cell harvesters (Cambridge Technology, Inc., MA), followed by washing the filter strips with saline (1 mL) for three times. Nonspecific binding was determined in the presence of 1 µM ET-1. The per cent inhibition at a concentration of 1 µM is shown. […]

SMILES | inhibition at 1 µM [%]
CCc1cc(C)cc(CC)c1NC(=O)CN1C[C@H](c2ccc3c(c2)OCO3)[C@@H](C(=O)O)[C@@H]1c1ccc(OC)cc1 [Example 22, trans,trans-2-(4-methoxyphenyl)-4-(1,3-benzodioxol-5-yl)-1-((2,6-diethyl-4-methyl)phenylaminocarbonylmethyl)-pyrrolidine-3-carboxylic acid] | 95.3
CCOc1ccc([C@H]2[C@H](C(=O)O)[C@@H](c3ccc4c(c3)OCO4)CN2CC(=O)Nc2c(CC)cccc2CC)cc1 [Example 23, (2R,3R,4S)-2-(4-ethoxyphenyl)-4-(1,3-benzodioxol-5-yl)-1-((2,6-diethyl)phenylaminocarbonylmethyl)-pyrrolidine-3-carboxylic acid] | 99.1
CCc1cc(C(=O)O)cc(CC)c1NC(=O)CN1C[C@H](c2ccc3c(c2)OCO3)[C@@H](C(=O)O)[C@@H]1c1ccc(OC)cc1 [Example 24, trans,trans-2-(4-methoxyphenyl)-4-(1,3-benzodioxol-5-yl)-1-((4-carboxy-2,6-diethyl)phenylaminocarbonylmethyl)-pyrrolidine-3-carboxylic acid] | 93.3
CCc1cc([N+](=O)[O-])cc(CC)c1NC(=O)CN1C[C@H](c2ccc3c(c2)OCO3)[C@@H](C(=O)O)[C@@H]1c1ccc(OC)cc1 [Example 25, trans,trans-2-(4-methoxyphenyl)-4-(1,3-benzodioxol-5-yl)-1-((4-nitro-2,6-diethyl)phenylaminocarbonylmethyl)-pyrrolidine-3-carboxylic acid] | 95.7
COc1ccc([C@H]2[C@H](C(=O)O)[C@@H](c3ccc4c(c3)OCO4)CN2CC(=O)Nc2c(C)cccc2C(C)C)cc1 [Example 26, trans,trans-2-(4-methoxyphenyl)-4-(1,3-benzodioxol-5-yl)-1-((2-isopropyl-6-methyl)phenylaminocarbonylmethyl)-pyrrolidine-3-carboxylic acid] | 98
CCc1cccc(OC)c1NC(=O)CN1C[C@H](c2ccc3c(c2)OCO3)[C@@H](C(=O)O)[C@@H]1c1ccc(OC)cc1 [Example 27, trans,trans-2-(4-Methoxyphenyl)-4-(1,3-benzodioxol-5-yl)-1-(N-(2-ethyl-6-methoxy)phenylaminocarbonylmethyl)-pyrrolidine-3-carboxylic acid] | 98.8
